The source of these data is patent US9675065B2 (priority 2011, dated 2017).

For series [1] the following is noted: 10 ml of 5 wt % stock solution + 100 microliters acidified silver chloride, ceramic cylinder.
The subject of series [2] is S. aureus (Staphylococcus aureus ATCC#6538). It counts as cell-based.
The test system of a further series is Staphylococcus aureus. It counts as cell-based. Particulars: pH 7.

“Also recorded” adds a separate entry of the source.

Regarding `OO` [hydrogen peroxide], the “gas formation on the test cylinder” value in series [1] is on record as “slow formation of gas”.
On to furoyl chlorate, for which the “rate of kill / biocide efficacy (in words)” value in series [2] is listed as “excellent rate of kill; also recorded: excellent biocide efficacy”. Further, the “biocide efficacy (in words)” value in the series with Staphylococcus aureus is listed as “no antimicrobial efficacy”.
